From US20240326697A1, “SOLID FORMS OF SELECTIVE ANDROGEN RECEPTOR MODULATORS” (priority 2007, published 2024)
Converted amounts (≈) assume the structure as drawn. Marks after values point to notes of the source that are not given here.

Columns and labels:
Assay type in all cases: physicochemical
[1] = Measurement of the approximate solubility (solvent added in steps to the solid); conditions: 23 °C, read-out: Solubility
Procedure: To determine the approximate solubility at room temperature, the solvent was added in steps to the solid material. After every addition, the sample was well stirred. The addition of solvent was continued until complete dissolution or until 15 ml of solvent was added.

[2] = Water solubility of solid forms A and B′ (suspension shaken, filtered, HPLC; residue by Raman); conditions: for Solid residue: Raman, rough estimate
Procedure: During the following experiments: suspension equilibration, precipitation experiment, recrystallization, relative stability experiments and water solubility experiment, a filtration step was conducted. Centrifugal filter devices: Ultrafree-CL (0.22 la,m), Millipore; Centrifuge type or Eppendorf 5804R were used at a temperature of 22° C. and centrifugation program of 2 min 3000 rpm.
HPLC was used to analyse the purity of S-1. HP 1090M HPLC machine was used with the following conditions: • Column: Symmetry Shield RP18, 3.9×150 mm, 5 μm • Column temperature: 35° C. • Injection volume: 10 μL • Solvent: acetonitrile+water 1:1 v/v • Mobile phase A: 0.1% TFA-water • Mobile phase B: 0.1% TFA-acetonitrile • Flow rate: 1 mL/min. • Detection: UV at 271 nm • Run time: 21 min. • Retention time (S-1): 10.7 min.
Suspensions of the solid forms (25 or 50 mg in 3.5 or 7.0 ml bidistilled water) were shaken (800 rpm) and filtered after 0.5 h, 1.5 h, 4 h and 20 h. After filtration the solid residue was checked by Raman spectroscopy and the concentration in the clear solution was determined by HPLC.

[3] = Water vapor sorption (humidity chamber) and aqueous suspension, form produced; conditions: for form B′ formed: powder stored in humidified chamber 96% r.h./23° C. (room temperature), 11 weeks, Raman and DSC
Procedure: The compound was stored in a glass tube under 96% r.h. (relative humidity) in a humidity chamber at room temperature. After different time of storage Raman measurements were conducted using hermetically closed glass tubes.

[4] = Suspension equilibration experiments; conditions: stirred 20 h/23° C.
Procedure: Suspension equilibration experiments were carried out with 81-128 mg of the compound. The suspensions were stirred with a magnetic stirrer. The samples obtained after filtration were air dried at ambient temperature for a short time only to prevent possible desolvation of labile hydrates or solvates.

[5] = Dynamic vapor sorption (DVS); conditions: 25° C.
Procedure: Dynamic vapor sorption quantification relates the mass of water absorbed and subsequently desorbed during the crystallization process. In order to define whether batch P1, P2 and P4 are hydrated polymorphs, DVS measurements were conducted (FIG. 9). A sample (13 to 14 mg) was placed on a Pt pan, and the sample was allowed to equilibrate at 25° C./50% r.h. before starting a pre-defined humidity program (1.0 hours 50%, from 50% r.h. to 95% r.h.: 5% r.h./hour, 10 hours at 95% r.h., from 95% r.h. to 0% r.h.: 5% r.h./hour, 10 hours at 0% r.h., from 0% r.h. to 50% r.h.: 5% r.h./hour, 1 hours at 50% r.h.

[6] = Relative stability of polymorphic forms under humid conditions (storage, DSC)
Procedure: (§1) Thermal analysis was carried out with a Perkin Elmer DSC7 with the following experimental conditions: 3 to 6 mg sample mass, closed gold sample pan, temperature range −50° C. to 120° C., heating rate 20 K/min. The samples were weighed in air or dry N2 atmosphere. Additional thermal analysis was conducted using a TA Instruments Q1000 DSC using hermetic aluminum pans under various conditions.
Polymorph A stays stable in its A form for at least 7 days under storage conditions of ambient temperature/75% RH (Relative Humidity), ambient temperature/100% RH, 30° C./75% RH and 50° C./0% RH.
In fact, polymorph D in the presence of moisture acts as the seed for the crystallization process and drives the transformation of polymorphs A and B′ into D, similar to its role in seeding the A to D crystallization in dry conditions. […] The amount of polymorph D initially added to the sample is very small that it isn't detectable by the DSC with heating rate of 10° C./min. […] The transformation process is speeded up in FIG. 17G (b) by storing the sample in water at 50° C. […] Further work has shown that the A and B′ convert to D in the presence of moisture at lower temperatures also albeit at slower rates.

[7] = Relative stability of polymorphic forms under dry conditions (heating, micronization)
Procedure: as §1
Thus forms A and B″ can be considered to be practically stable at ambient temperature. […] Micronization of the polymorph A particles under dry conditions also produced ˜25% conversion to B″.

Compound C[C@](O)(COc1ccc(C#N)cc1)C(=O)Nc1ccc(C#N)c(C(F)(F)F)c1 [Form A, (S)-N-(4-cyano-3-(trifluoromethyl)phenyl)-3-(4-cyanophenoxy)-2-hydroxy-2-methylpropanamide] has a solubility ([1]; 1,4-dioxane, organic solvent or mixture, thermodynamic from solid, 1,4-dioxane, 23° C.) greater than 200 mg/mL, a solubility ([1]; TBME, organic solvent or mixture, thermodynamic from solid, TBME, 23° C.) greater than 200 mg/mL and a solubility ([1]; THF, organic solvent or mixture, thermodynamic from solid, THF, 23° C.) greater than 200 mg/mL. The solubility ([1]; THF/n-heptane 1:1 v/v, organic solvent or mixture, thermodynamic from solid, THF/n-heptane 1:1 v/v, 23° C.) was greater than 200 mg/mL, the solubility ([1]; THF/n-heptane 1:3 v/v, organic solvent or mixture, thermodynamic from solid, THF/n-heptane 1:3 v/v, 23° C.) was 65 mg/mL (≈ 167 mM) and the solubility ([1]; acetic acid, organic solvent or mixture, thermodynamic from solid, acetic acid, 23° C.) was greater than 200 mg/mL. It also gave a solubility ([1]; acetone, organic solvent or mixture, thermodynamic from solid, acetone, 23° C.) greater than 200 mg/mL, a solubility ([1]; acetone/n-heptane 1:1 v/v, organic solvent or mixture, thermodynamic from solid, acetone/n-heptane 1:1 v/v, 23° C.) greater than 200 mg/mL and a solubility ([1]; acetone/n-heptane 1:3 v/v, organic solvent or mixture, thermodynamic from solid, acetone/n-heptane 1:3 v/v, 23° C.) of 90 mg/mL (≈ 231 mM). For the same compound, the solubility ([1]; acetonitrile, organic solvent or mixture, thermodynamic from solid, acetonitrile, 23° C.) was greater than 200 mg/mL, the solubility ([1]; acetonitrile/toluene 1:1 v/v, organic solvent or mixture, thermodynamic from solid, acetonitrile/toluene 1:1 v/v, 23° C.) was greater than 200 mg/mL and the solubility ([1]; acetonitrile/toluene 1:3 v/v, organic solvent or mixture, thermodynamic from solid, acetonitrile/toluene 1:3 v/v, 23° C.) was 170 mg/mL (≈ 437 mM). For the same compound, the solubility ([1]; dichloromethane, organic solvent or mixture, thermodynamic from solid, dichloromethane, 23° C.) was greater than 200 mg/mL, the solubility ([1]; ethanol, organic solvent or mixture, thermodynamic from solid, ethanol, 23° C.) was greater than 200 mg/mL and the solubility ([1]; ethanol/n-heptane 1:1 v/v, organic solvent or mixture, thermodynamic from solid, ethanol/n-heptane 1:1 v/v, 23° C.) was 180 mg/mL (≈ 462 mM). For the same compound, the solubility ([1]; ethanol/n-heptane 1:3 v/v, organic solvent or mixture, thermodynamic from solid, ethanol/n-heptane 1:3 v/v, 23° C.) was 50 mg/mL (≈ 128 mM), the solubility ([1]; ethanol/water 1:1 v/v, aqueous with cosolvent or surfactant or cyclodextrin, thermodynamic from solid, ethanol/water 1:1 v/v, 23° C.) was 50 mg/mL (≈ 128 mM) and the solubility ([1]; ethanol/water 1:3 v/v, aqueous with cosolvent or surfactant or cyclodextrin, thermodynamic from solid, ethanol/water 1:3 v/v, 23° C.) was less than 5 mg/mL. The solubility ([1]; ethanol/water 3:1 v/v, aqueous with cosolvent or surfactant or cyclodextrin, thermodynamic from solid, ethanol/water 3:1 v/v, 23° C.) was greater than 200 mg/mL, the solubility ([1]; ethyl acetate, organic solvent or mixture, thermodynamic from solid, ethyl acetate, 23° C.) was greater than 200 mg/mL and the solubility ([1]; ethyl acetate/n-heptane 1:1 v/v, organic solvent or mixture, thermodynamic from solid, ethyl acetate/n-heptane 1:1 v/v, 23° C.) was 65 mg/mL (≈ 167 mM). It also gave a solubility ([1]; ethyl acetate/n-heptane 1:2 v/v, organic solvent or mixture, thermodynamic from solid, ethyl acetate/n-heptane 1:2 v/v, 23° C. (B′: solid form transformation into solid form A)) of 9 mg/mL (≈ 23.1 mM), a solubility ([1]; ethyl acetate/n-heptane 1:3 v/v, organic solvent or mixture, thermodynamic from solid, ethyl acetate/n-heptane 1:3 v/v, 23° C. (turbid solution)) of less than 5 mg/mL and a solubility ([1]; ethyl acetate/n-pentane 1:2 v/v, organic solvent or mixture, thermodynamic from solid, ethyl acetate/n-pentane 1:2 v/v, 23° C.) of 13 mg/mL (≈ 33.4 mM). For the same compound, the solubility ([1]; ethyl formate/n-pentane 1:2 v/v, organic solvent or mixture, thermodynamic from solid, ethyl formate/n-pentane 1:2 v/v, 23° C.) was 12 mg/mL (≈ 30.8 mM), the solubility ([1]; methyl acetate/n-pentane 1:2 v/v, organic solvent or mixture, thermodynamic from solid, methyl acetate/n-pentane 1:2 v/v, 23° C.) was 8 mg/mL (≈ 20.5 mM) and the solubility ([1]; toluene, organic solvent or mixture, thermodynamic from solid, toluene, 23° C. (turbid solution)) was less than 6 mg/mL. The solubility in water ([2]; 22° C., stated as embodiment) was 23 to 27 mg/L, the Solid residue ([2]; water, 22° C., 0.5 h) was “A + B′ (approx. 95% + 5%) ^c)” and the Solid residue ([2]; water, 22° C., 1.5 h) was “A + B′ (approx. 90% + 10%) ^c)”. For the same compound, the Solid residue ([2]; water, 22° C., 4.0 h) was “A + B′ (approx. 85% + 15%) ^c)”, the Solid residue ([2]; water, 22° C., 20 h) was “A + B′ (approx. 75% + 25%) ^c)” and the “pH of the solution” value ([2]; water, 22° C., 20 h suspension equilibration) was “^d) pH of the solution: 8.7”. The solubility ([2]; water, 22° C., suspension equilibration time 0.5 h, mean of two measurements (±standard deviation)) was 21.0 ± 3.9 mg/1000 ml, the solubility ([2]; water, 22° C., suspension equilibration time 1.5 h, mean of two measurements (±standard deviation)) was 24.0 ± 1.4 mg/1000 ml and the solubility ([2]; water, 22° C., suspension equilibration time 1.5 h, mean of two measurements (±standard deviation), listed as A) was 24.0±1.4 mg/1000 ml. For the same compound, the solubility ([2]; water, 22° C., suspension equilibration time 4.0 h, mean of two measurements (±standard deviation)) was 27.6 ± 1.5 mg/1000 ml, the solubility ([2]; water, 22° C., suspension equilibration time 20 h, mean of two measurements (±standard deviation)) was 24.5 ± 1.7 ^d) mg/1000 ml and the solubility ([2]; water, 22 °C, water, thermodynamic from solid, stated as embodiment, read-out: solubility in water) was 20 to 30 µg/mL (≈ 0.0514 to 0.0771 mM). For the same compound, the “form B′ formed” value ([3]; listed as A) was roughly 20% form B′, the “form B′ formed” value ([3]; listed as form A) was “approx. 20%” and the Form produced ([3]; powder stored in humidified chamber 96% r.h./23° C., 4 weeks) was “A + small”. For the same compound, the Form produced ([3]; powder stored in humidified chamber 96% r.h./23° C., 9 weeks) was “A + form B′”, the Form produced ([3]; suspension in water 111/5.0 mg/ml, sonication 5 min., stirred 19 h/37° C., filtered & air dried) was “B′” and the Form produced ([3]; water + 5% acetic acid v/v 105/2.0 mg/ml, stirred 17 h/40° C., cooled to R.T. and removed solution) was “B′”. The Form produced ([3]; water + 5% ethanol v/v 123/2.1 mg/ml, stirred 3 h/83° C., cooled to 47° C. within 1.5 h, filtered & air dried) was “B′”, the Form produced ([4]; ethyl formate + n-pentane 1:2 v/v 112/2.0 mg/ml) was “no transformation of solid form A” and the Form produced ([4]; methyl acetate + n-pentane 1:2 v/v 126/2.0 mg/ml) was “no transformation of solid form A”. For the same compound, the “maximum water content at 93% r.h.” value [5] was 1.5%, the “solid form change, seeded with a small amount of D” value (from here on “solid form change, seeded”) ([6]; 50° C./75% RH, after 24 hours) was “most of the polymorph form A has been converted to B′ but a small amount of sample has also been converted to D” and the “time stable in its A form on storage” value ([6]; each of ambient temperature/75% RH, ambient temperature/100% RH, 30° C./75% RH and 50° C./0% RH) was “at least 7 days”. For the same compound, the “stable through (storage time)” value ([6]; stored at 25° C./60% RH) was no less than 36 months, the “stable through (storage time)” value ([6]; stored at 30° C./65% RH) was no less than 9 months and the “solid form change on storage” value ([6]; stored at 40° C./75% RH) was “converts to B′ when stored at 40° C./75% RH within one month”. The “solid form change on storage” value ([6]; stored at 40° C./75% RH, listed as polymorph A) was “converted to B′ within one month”, the “solid form change on storage” value ([6]; stored at 50° C./75% RH) was “converts to B′” and the “solid form change, seeded” value ([6]; stored in water at 50° C., after 6 hours) was “converted to both B′ and D”. The “solid form change, seeded” value ([6]; stored in water at 50° C., by 24 hours) was “predominantly in form D”, the “solid form change on heating” value ([7]; heating to 110° C. in the presence of D) was “rearrange into D” and the “conversion to B″” value ([7]; micronization of the particles under dry conditions) was roughly 25%.
